Here are results for 8 molecules from patent publication US4755510A, “Novel anticonvulsive tetrahydro-1,2,4-oxadiazine-5-thion derivatives and use” (Richter Gedeon Vegyeszeti Gyar R.T., priority 1984, dated 1988).

Data set [1] has as its system Male CFLP (LATI) mice. As to the kind of experiment: Maximal electroshock (MES), protection from tonic extensoric spasm of the lower limbs. Type of data set: in vivo. The following applies: Mus musculus, po; for ED50: read-out: Anticonvulsive activity MES ED50; for inhibition at 30 mg/kg: read-out: MES inhibition (%). As to the method: (§1) The compound to be tested was suspended in 2 percent aqueous Tween 80 (polyoxyethylene sorbitane monolaurate) solution and it was orally administered to the animals through a bougie in a dose of 30 mg/kg when the anticonvulsive activity was tested, while in a dose of 120 mg/kg when the neurotoxic activity was examined. The effect triggered was measured after 1 hour of the administration. Male CFLP (LATI) mice having a weight of 18 to 22 g were used in the tests.
The animals were shocked with a corneal electrode (20 mA, 0.2 sec.) (H. Schachs Elektronik, Marchs, Augstatten, Germany, "schockreizgerat" typ. 207) according to the method of E. A. Swinyard et al. (J. Pharmacol. Exp. Ther. 106, 318 (1952)]. 100% of the control animals responded to the stimulus by the tonic extensoric spasm of the lower limbs. The lack of these occurences was attributed to the protection obtained by the treatment.
MES: maximal electroshock

Data set [2] deals with Male CFLP (LATI) mice. The experiment in a line: Spasm stimulated by Pentetrazole (PTT). Type of data set: in vivo. To be noted: po; for ED50: Mus musculus, read-out: Anticonvulsive activity PTT TE (tonic extensoric spasm) ED50. As for the experimental part:
as §1
According to the method of G. M. Everett and R. K. Richard [J. Pharmacol. Exp. Ther., 81, 402, (1944)] the test animals were treated with 125 mg/kg of Pentetrazole (pentamethylene tetrazole) after 1 hour of the administration of the compound to be tested. The lack of the clonic spasm (KI) and the tonic extensoric spasm of the lower limbs (TE) was attributed to the protection obtained as a result of the treatment.
PTT: inhibition of the spasm stimulated by pentetrazole
TE: tonic extensoric spasm

A short description of the next data set: Acute toxicity (LD50). Type of data set: in vivo. To be noted: mouse, in vivo, po; one dose, observation through 14 days; probit analysis; read-out: Acute tox. LD50. As for the experimental part:
as §1
(§2) The toxicity of the compounds was examined after the administration of 1000 mg/kg of the test compound in one dose by an observation through 14 days. The LD50 value (50 percentile lethal dose) was calculated by probite analysis on the basis of the percentile ratio of the animals died within the 14 days.

Data set [3] relates to Male CFLP (LATI) mice. As to the kind of experiment: Spasm stimulated by strychnine (Str). Type of data set: in vivo. The following applies: Mus musculus, po, 1 h, read-out: Anticonvulsive activity Str (spasm stimulated by strychnine) ED50. As for the experimental part: as §1
According to the method of T. L. Kerley et al. [J. Pharmacol. Exp. Ther. 132, 360 (1961)] the test animals were i. p. treated with 2.5 mg/kg of strychnine after 1 hour of the administration of the active ingredient to be tested.
Str: inhibition of the spasm stimulated by strychnine

Data set [4] can be described thus: Neurotoxicity (muscle uncoordination), rotating bar (FR). To be noted: mouse, in vivo, po. Also noted: species or system mice (male CFLP (LATI)). As for the experimental part:
as §1
The change of the coordinated muscle motion was examined on a rotating bar according to the method of C. J. Carr [J. Pharmacol. Exp. Ther., 121, 354 (1957)] (diameter: 20 mm, number of revolutions: 12/minute). The trained control animals could stay on the bar for 120 seconds. After 1 hour of the administration of the test compound, it was examined which percent of the animals fell down from the rotating bar within 120 seconds.

Data set [5] has as its system Male CFLP (LATI) mice. As to the kind of experiment: Acute toxicity (LD50). To be noted: one dose, observation through 14 days; probit analysis. Type of data set: in vivo. As for the experimental part: as §1, §2

Like-named read-outs stand apart in the source and are kept apart here.

With `CC(=O)N1O[C@H](C)C(=S)N[C@@H]1c1ccccc1` (relative stereo) [A], the ED50 – broadly, the midpoint of the dose-response relation – in the data set with Male CFLP (LATI) mice [1] (1 h) came to 11.9 mg/kg; with Male CFLP (LATI) mice [2] (1 h), 6.1 mg/kg. For the same molecule, the LD50 (as a rule, the dose expected to kill half of the subjects tested) at 336 h in the data set “Acute toxicity (LD50)” came out at 1000 mg/kg.
With `CC(=O)N1O[C@H](C)C(=S)N[C@@H]1c1ccccc1C` (relative stereo) [C, 2-Acetyl-3-(2-methylphenyl)-6-methyl-tetrahydro-1,2,4-oxadiazine-5-thion], the values for the ED50 in the data set with Male CFLP (LATI) mice [1] (1 h), with Male CFLP (LATI) mice [2] (1 h) and in the data set on Male CFLP (LATI) mice [3] were 10 mg/kg, 4.3 mg/kg and 25.6 mg/kg, respectively. Moreover, the LD50 at 336 h in “Acute toxicity (LD50)” is 1000 mg/kg.
As to `CC(=O)N1O[C@H](C)C(=S)N[C@@H]1c1ccc(N(C)C)cc1` (relative stereo) [D], the ED50 in the data set with Male CFLP (LATI) mice [1] (1 h) amounted to 30 mg/kg. Moreover, in the data set on Male CFLP (LATI) mice [2] (1 h), the ED50 amounted to 9.9 mg/kg and the “Anticonvulsive activity PTT K1 (clonic spasm) ED50” value (“Anticonvulsive activity PTT K1” for short) is recorded as 0 mg/kg. In addition, in “Acute toxicity (LD50)”, the LD50 at 336 h is 1000 mg/kg.
For the molecule `CC[C@H]1ON(C(C)=O)[C@@H](c2ccccc2)NC1=S` (relative stereo) [F], the inhibition (in general, the percentage by which the read-out fell short of the control) at 30 mg/kg in the data set on Male CFLP (LATI) mice [1] (1 h) amounted to 40%. Further, in the data set with Male CFLP (LATI) mice [2] (1 h), the ED50 stood at 15.4 mg/kg and the “Anticonvulsive activity PTT K1” value is 0 mg/kg. In the data set “Acute toxicity (LD50)”, the LD50 at 336 h worked out at 1000 mg/kg.
On to `CC(=O)N1O[C@H](C)C(=S)N[C@@H]1c1ccccc1` [B], for which the median effective dose (ED50) stood at 16.1 mg/kg in the data set on Male CFLP (LATI) mice [1] (1 h) and 12.6 mg/kg in the data set on Male CFLP (LATI) mice [2] (1 h). Besides, in the data set “Acute toxicity (LD50)”, the LD50 at 336 h is 1000 mg/kg.
For `O=C1NC(=O)C(c2ccccc2)(c2ccccc2)N1` [Compound K1, Diphenyl hydantoin, reference compound], the ED50 in the data set on Male CFLP (LATI) mice [1] (1 hour after administration, corneal electrode 20 mA, 0.2 sec) was 8.3 mg/kg; in the data set with Male CFLP (LATI) mice [2] (Pentetrazole 125 mg/kg 1 hour after administration, tonic extensoric spasm), 9.9 mg/kg. This molecule also gave a TD50 at 1 h in data set [4] of 47.7 mg/kg. The “Acute tox. LD50” value in the data set on Male CFLP (LATI) mice [5] was 278 mg/kg.
For the molecule `CC(=O)N1OCC(=O)NC1c1ccccc1` (centres unmarked) [Compound K2, 2-Acetyl-3-phenyl-tetrahydro-1,2,4-oxadiazine-5-one, reference compound], the ED50 was 22.7 mg/kg in the data set with Male CFLP (LATI) mice [1] (1 h) and 13.4 mg/kg in the data set on Male CFLP (LATI) mice [2] (1 h). The TD50 at 1 h in data set [4] (rotating bar 12/minute, 120 seconds, 1 hour after administration, read-out: Neurotox. FR (rotating bar) ED50) turned out to be 130 mg/kg.
`CC(=O)N1OCC(=S)NC1c1ccccc1` (centres unmarked) [E, 2-Acetyl-3-phenyl-tetrahydro-1,2,4-oxadiazine-5-thion]: the inhibition at 30 mg/kg with Male CFLP (LATI) mice [1] (1 h) was determined as 10%. In addition, in the data set on Male CFLP (LATI) mice [2] (1 h), the ED50 was determined as 16.6 mg/kg and the “Anticonvulsive activity PTT K1” value came to 0 mg/kg. Also, the LD50 at 336 h in the data set “Acute toxicity (LD50)” worked out at 1000 mg/kg.
